Data: patent US12134610B2, “Somatostatin subtype-2 receptor (SST2R) targeted therapeutics and uses thereof” (priority 2022, dated 2024)
Starred links: 1 amine or outer side, 2 acyl side, 3 side chain; linkers in the order of their positions; H or OH if unused. Non-standard residues stand in square brackets, D forms with d. Residues, ends and D or L forms follow the SMILES beside them. *: point of attachment. X4 = Cc1cc(F)cc(-c2cnc(NCCNC(=O)CCOCCOCCOCCOCCC(=O)*)c(-c3nc4ccc(Cl)cc4[nH]3)c2N2CCC(N)CC2)c1; Dolaproine = CO[C@@H]([C@@H]1CCCN1)[C@@H](C)C(=O)O; Dil = CC[C@H](C)[C@H](NC)[C@@H](CC(=O)O)OC; PABC = O=C(OCc1ccc(N[*:1])cc1)[*:2]; X2 = C[C@@H](N*)[C@@H](O)c1ccccc1; Cit = NC(=O)NCCC[C@H](N)C(=O)O; NMeV = CN[C@H](C(=O)O)C(C)C

Tests used:
Format in all cases: cell-based
[1] = molecular target: T1, human somatostatin receptor subtype 2 (Homo sapiens, UniProt P30874); assay: Functional cAMP assay for SSTR2 agonists (HTRF) in CHO-K1 cells; conditions: CHO-K1 cells stably expressing human SST2, 20 min; read-out: hSST2 cAMP Avg EC50
T1 construct: expressed in transfected cells
T1 sequence (P30874 whole entry): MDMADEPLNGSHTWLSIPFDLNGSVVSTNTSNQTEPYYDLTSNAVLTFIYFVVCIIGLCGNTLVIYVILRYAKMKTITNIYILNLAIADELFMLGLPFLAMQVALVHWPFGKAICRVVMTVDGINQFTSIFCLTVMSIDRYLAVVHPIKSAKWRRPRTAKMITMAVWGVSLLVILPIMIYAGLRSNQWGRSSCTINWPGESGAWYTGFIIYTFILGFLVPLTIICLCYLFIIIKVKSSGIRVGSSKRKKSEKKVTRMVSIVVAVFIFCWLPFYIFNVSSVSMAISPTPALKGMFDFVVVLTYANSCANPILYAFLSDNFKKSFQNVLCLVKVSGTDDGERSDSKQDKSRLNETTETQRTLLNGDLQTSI
Procedure, shortened: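 Agonism scored as loss of NKH477 (1.6 μM)-driven cAMP, with IBMX present, after 20 min, 37° C. exposure of stably transfected CHO-K1 cells to compound dilutions (typically 0-10,000 nM). Lysates read by time-resolved FRET; cAMP interpolated from standard curve and EC50 derived.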

SST2 = molecular target: T2, SST2 (Homo sapiens, UniProt P30874); assay: PathHunter CHO-K1 SST2 internalization assay; conditions: PathHunter CHO-K1 SST2, 90 min; read-out: Internalization EC50
T2 construct: host or cells: PathHunter CHO-K1 SST2 cells
T2 sequence (P30874 whole entry): as above
Procedure, shortened: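 IC50 comes from four-parameter curves on background-corrected duplicates of Beta-Glo luminescence, read after 60 min at room temperature in the dark. Before that, CHO-K1 SST2 internalization cells (48 h post-seeding) received SMDC as eleven threefold dilutions, 10 uM highest final, for 90 min at 37 C.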

[2] = system: NCI-H524 (ATCC) human small cell lung cancer cells; conditions: 2 h
Procedure, shortened: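 CellTiter-Glo luminescence after a 2 h SMDC pulse (top dose 1 uM, 2-fold dilutions, 11 points), medium wash, then 70 h recovery. Cells were seeded at 5,000/well and dosed 24 h later. % inhibition vs control gave IC50 via four-parameter fit.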

Row | Compound | EC50 [1] | EC50 (SST2) | EC50 [2]
1 | CC[C@H](C)[C@@H]([C@@H](CC(=O)N1CCC[C@H]1[C@H](OC)[C@@H](C)C(=O)N[C@H](C)[C@@H](O)c1ccccc1)OC)N(C)C(=O)[C@@H](NC(=O)[C@H](C(C)C)N(C)C(=O)OCc1ccc(NC(=O)[C@H](CCCNC(N)=O)NC(=O)[C@@H](NC(=O)[C@H](CCC(=O)O)NC(=O)[C@H](CCC(=O)O)NC(=O)CCOCCOCCOCCOCCC(=O)NCCNc2ncc(-c3cc(C)cc(F)c3)c(N3CCC(N)CC3)c2-c2nc3ccc(Cl)cc3[nH]2)C(C)C)cc1)C(C)C [Compound 110] (X4-EEV[Cit][PABC][NMeV]V[Dil][Dolaproine]-X2) | 0.57 nM | 13 nM | 110 nM
2 | CC[C@H](C)[C@@H]([C@@H](CC(=O)N1CCC[C@H]1[C@H](OC)[C@@H](C)C(=O)N[C@H](C)[C@@H](O)c1ccccc1)OC)N(C)C(=O)[C@@H](NC(=O)[C@H](C(C)C)N(C)C(=O)OCc1ccc(NC(=O)[C@H](C)NC(=O)[C@@H](NC(=O)CCOCCC(=O)NCCNc2ncc(-c3cc(C)cc(F)c3)c(N3CCC(N)CC3)c2-c2nc3ccc(Cl)cc3[nH]2)C(C)C)c(O[C@@H]2O[C@H](CO)[C@@H](O)[C@H](O)[C@H]2O)c1)C(C)C [Compound 131] | 0.13 nM | 5.2 nM | 4 nM
3 | CCC(C)C(C(CC(=O)N1CCCC1C(OC)C(C)C(=O)NC(C)C(O)c1ccccc1)OC)N(C)C(=O)C(NC(=O)C(C(C)C)N(C)C(=O)OCc1ccc(NC(=O)[C@H](CCCNC(N)=O)NC(=O)[C@@H](NC(=O)CCOCCC(=O)NCCNc2ncc(-c3cc(C)cc(F)c3)c(N3CCC(N)CC3)c2-c2nc3ccc(C(N)=O)cc3[nH]2)C(C)C)cc1)C(C)C (stereo in doubt) [Compound 28] | 2 nM | 704 nM | 1290 nM
4 | CC[C@H](C)[C@@H]([C@@H](CC(=O)N1CCC[C@H]1[C@H](OC)[C@@H](C)C(=O)N[C@H](C)[C@@H](O)c1ccccc1)OC)N(C)C(=O)[C@@H](NC(=O)[C@H](C(C)C)N(C)C(=O)OCc1ccc(NC(=O)[C@H](CCCNC(N)=O)NC(=O)[C@@H](NC(=O)CN2CCN(CC(=O)O)CCN(CC(=O)NCCOCCOCCOCCOCCC(=O)NCCNc3ncc(-c4cc(C)cc(F)c4)c(N4CCC(N)CC4)c3-c3nc4ccc(Cl)cc4[nH]3)CC2)C(C)C)cc1)C(C)C [Compound 39] | 0.12 nM | 18.7 nM | 35.9 nM
5 | CC[C@H](C)[C@@H]([C@@H](CC(=O)N1CCC[C@H]1[C@H](OC)[C@@H](C)C(=O)N[C@H](C)[C@@H](O)c1ccccc1)OC)N(C)C(=O)[C@@H](NC(=O)[C@H](C(C)C)N(C)C(=O)OCc1ccc(NC(=O)[C@H](CCCNC(N)=O)NC(=O)[C@@H](NC(=O)CCOCCOCCOCCOCCC(=O)NCCNc2ncc(-c3cc(C)cc(F)c3)c(N3CCC(N)CC3)c2-c2nc3ccc(Cl)cc3[nH]2)C(C)C)cc1C(N)=O)C(C)C [Compound 123] | 0.13 nM | 7 nM | 18 nM
6 | CC[C@H](C)[C@@H]([C@@H](CC(=O)N1CCC[C@H]1[C@H](OC)[C@@H](C)C(=O)N[C@H](C)[C@@H](O)c1ccccc1)OC)N(C)C(=O)[C@@H](NC(=O)[C@H](C(C)C)N(C)C(=O)OCc1ccc(NC(=O)[C@H](CCCNC(N)=O)NC(=O)[C@@H](NC(=O)CCOCCC(=O)NCCNc2ncc(-c3cc(C)cc(F)c3)c(N3CCC(N)CC3)c2-c2nc3ccc(Cl)cc3[nH]2)C(C)C)c(O[C@@H]2O[C@H](CO)[C@@H](O)[C@H](O)[C@H]2O)c1)C(C)C [Compound 134] | 0.18 nM | 4.6 nM | 3.8 nM
7 | CC[C@H](C)[C@@H]([C@@H](CC(=O)N1CCC[C@H]1[C@H](OC)[C@@H](C)C(=O)N[C@H](C)[C@@H](O)c1ccccc1)OC)N(C)C(=O)[C@@H](NC(=O)[C@H](C(C)C)N(C)C(=O)OCc1ccc(NC(=O)[C@H](CCCNC(N)=O)NC(=O)[C@@H](NC(=O)CCC(=O)NCCNc2ncc(-c3cc(C)cc(F)c3)c(N3CCC(N)CC3)c2-c2nc3ccc(Cl)cc3[nH]2)C(C)C)c(O[C@@H]2O[C@H](C(=O)O)[C@@H](O)[C@H](O)[C@H]2O)c1)C(C)C [Compound 75] | 0.54 nM | 8.9 nM | 16.5 nM
